Values of other authors as cited in patent publication EP0642530B1, “DERIVATIVES OF DOLASTATIN” (BASF Aktiengesellschaft, priority 1992, dated 1993).

Settings: background statement, no method given

Dolastatin-10
stability to acid: unstable to acid
